Test results from patent publication EP4567035A1, “NOVEL COMPOUND AS HYPOXIA-INDUCIBLE FACTOR 1(HIF-1) INHIBITOR OR VASCULAR ENDOTHELIAL GROWTH FACTOR (VEGF) INHIBITOR, AND PHARMACEUTICAL COMPOSITION COMPRISING SAME” (Nextgen Bioscience Co., Ltd., priority 2022, dated 2024).
Where a name gives a salt, the structure may show the parent alone.

target: T1, HIF-1α (Homo sapiens, UniProt Q16665); assay: Analysis of HIF-1α protein expression (Western blot) in ARPE-19 cells under mixed hypoxic condition; assay type: cell-based; settings: mixed hypoxic condition (1% oxygen + CoCl2) for 1 hour, concentration range at which HIF-1α expression is reduced by 50% vs untreated control, read-out: IC50 HIF-1α Hypoxia (1 hour)
T1 construct: endogenous in cells; host or cells: ARPE-19 (ATCC CRL-2302)
T1 sequence (Q16665 whole entry): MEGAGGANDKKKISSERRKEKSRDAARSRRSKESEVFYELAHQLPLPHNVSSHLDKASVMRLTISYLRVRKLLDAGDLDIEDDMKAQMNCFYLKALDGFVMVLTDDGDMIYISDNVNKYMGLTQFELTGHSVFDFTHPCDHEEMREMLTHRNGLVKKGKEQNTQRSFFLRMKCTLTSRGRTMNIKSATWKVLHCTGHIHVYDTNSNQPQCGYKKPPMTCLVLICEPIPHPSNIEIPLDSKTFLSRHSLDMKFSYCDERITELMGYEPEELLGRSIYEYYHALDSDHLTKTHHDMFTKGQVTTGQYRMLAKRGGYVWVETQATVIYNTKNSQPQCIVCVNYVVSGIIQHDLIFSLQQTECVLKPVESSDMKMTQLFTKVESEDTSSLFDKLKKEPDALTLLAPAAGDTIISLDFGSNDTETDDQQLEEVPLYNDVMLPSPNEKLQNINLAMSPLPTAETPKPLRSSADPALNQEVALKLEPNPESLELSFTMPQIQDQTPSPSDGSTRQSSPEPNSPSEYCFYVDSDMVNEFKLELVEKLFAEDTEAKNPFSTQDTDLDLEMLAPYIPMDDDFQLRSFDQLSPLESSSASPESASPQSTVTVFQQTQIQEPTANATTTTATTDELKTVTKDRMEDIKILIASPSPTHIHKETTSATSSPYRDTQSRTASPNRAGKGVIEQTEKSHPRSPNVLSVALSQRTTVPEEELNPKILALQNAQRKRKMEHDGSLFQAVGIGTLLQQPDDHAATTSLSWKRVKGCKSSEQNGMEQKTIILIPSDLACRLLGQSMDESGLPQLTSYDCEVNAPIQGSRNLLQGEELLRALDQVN
Procedure: ARPE-19 cells (Human retinal pigment epithelial cells, ATCC CRL-2302) were cultured in DMEM/F12 (LM002-08, Welgene) medium containing 10% fetal bovine serum (FBS, 16000-044, Gibco) in an incubator at 37°C with 5% carbon dioxide. When the cells grew sufficiently, they were cultured in experimental culture dishes for protein isolation and medium supernatant acquisition.
Cells were detached from the culture dish using TrypLE™ Express (Gibco). After centrifugation at 1000 rpm for 3 minutes, the supernatant was removed. The cells were counted and seeded into new culture dishes. Normoxic conditions were maintained by culturing the cells in a 37°C incubator with 5% carbon dioxide, and hypoxic conditions were maintained by culturing the cells in a hypoxic incubator with 1% oxygen, 5% carbon dioxide, and 94% nitrogen gas.
In a disease of macular degeneration, hypoxia is a very important condition, and since the expression of downstream genes is regulated by HIF-1α, a transcription factor that is stabilized in hypoxic conditions, the following experiment was conducted to confirm this.
Mixed hypoxic condition was used for HIF-1α stability experiments, in which hypoxia was induced with 1% oxygen and the stability of HIF-1α was enhanced by treatment with cobalt chloride (CoCl2).
The compounds of each Example were diluted to 0.1 nM, 1 nM, 3 nM, 10 nM, 30 nM, 100 nM, 300 nM, 1 µM, and 10 µM in DMEM/F12 medium without fetal bovine serum, pretreated for 16 hours or 2 hours, and cultured for 1 hour or 24 hours in a mixed hypoxic condition. The cell medium was discarded, and protein lysates were obtained by rapidly treating with protein lysis buffer (RIPA Lysis and Extraction buffer, Thermo Fisher Scientific). LDS (4X Bolt ™ LDS Sample buffer) and reducing agent (10X Bolt ™ Sample Reducing Agent) were added together to the protein lysate, and heated at 70°C for 10 minutes. The lysate was separated by electrophoresis on a 4-12% Bis-Tris gel, transferred to a PVDF membrane, and blocked with 3% BSA (Albumin, Bovine, Fraction V, MPbio). The membrane was incubated overnight at 4°C with a mixture of anti-HIF-1α (ab179483, abcam) and anti-b-actin (MA515739, Invitrogen) antibodies at a ratio of 1:4000. The following day, the membrane was treated with a peroxidase-conjugated secondary antibody for 1 hour at room temperature, and the target protein was expressed using an ECL solution (Clarity ™ Western ECL substrate, Bio-rad) and quantified.
Based on the results of the expression level of HIF-1α in cells treated with compounds diluted from 10 µM to 0.1 nM, the concentration range of the compound at which the expression level of HIF-1α was reduced by 50% or less compared to the untreated control group was derived.

Structure (SMILES)	DC50 [nM]
C[Si](C)(C)CCOCn1c(C2CCCC2)nc2ncnc(C(=O)NCc3cc(F)cc(-c4cnn(-c5cccc(C#N)c5)c4)c3)c21 [Example 22, N-(3-(1-(3-cyanophenyl)-1H-pyrazol-4-yl)-5-fluorobenzyl)-8-cyclopentyl-7-((2-(trimethylsilyl)ethoxy)methyl)-7H-purine-6-carboxamide]	100 to 1000
CN1CCC[C@@H]1c1nc2ncnc(C(=O)NCc3cccc(F)c3)c2[nH]1 [Example 68, (R)-N-(3-fluorobenzyl)-8-(1-methylpyrrolidin-2-yl)-7H-purine-6-carboxamide]	1000 to 10000
Cn1cc(-c2cc(F)cc(CNC(=O)c3ncnc4nc([C@H]5CCCN5)[nH]c34)c2)cn1 [Example 65, (R)-N-(3-fluoro-5-(1-methyl-1H-pyrazol-4-yl)benzyl)-8-(pyrrolidin-2-yl)-7H-purine-6-carboxamide hydrochloride]	1000 to 10000
Cn1c(C2CCCC2)nc2ncnc(C(=O)NCc3cc(F)cc(-c4cnn(-c5ccc(F)cc5)c4)c3)c21 [Example 55, 8-Cyclopentyl-N-(3-fluoro-5-(1-(4-fluorophenyl)-1H-pyrazol-4-yl)benzyl)-7-methyl-7H-purine-6-carboxamide]	100 to 1000
Cn1cc(-c2cccc(C3(NC(=O)c4ncnc5nc(C6CCCC6)[nH]c45)CC3)c2)cn1 [Example 6, 8-Cyclopentyl-N-(1-(3-(1-methyl-1H-pyrazol-4-yl)phenyl)cyclopropyl)-7H-purine-6-carboxamide]	100 to 1000
O=C(NCc1cc(F)cc(Br)c1)c1ncnc2nc(C3CCCC3)[nH]c12 [Example 14, N-(3-bromo-5-fluorobenzyl)-8-cyclopentyl-7H-purine-6-carboxamide]	100 to 1000
O=C(NCc1cc(F)cc(-c2cnn(-c3ccc(F)cc3)c2)c1)c1nc(Cl)nc2nc(C3CCCC3)[nH]c12 [Example 61, 2-Chloro-8-cyclopentyl-N-(3-fluoro-5-(1-(4-fluorophenyl)-1H-pyrazol-4-yl)benzyl)-7H-purine-6-carboxamide]	100 to 1000
Cn1cc(-c2cc(F)cc(CNC(=O)c3ncnc4nc([C@@H]5CCCN5)[nH]c34)c2)cn1 [Example 62, (S)-N-(3-fluoro-5-(1-methyl-1H-pyrazol-4-yl)benzyl)-8-(pyrrolidin-2-yl)-7H-purine-6-carboxamide hydrochloride]	1000 to 10000
Cn1cc(-c2cc(F)cc(CNC(=O)c3ncnc4nc(C5CCN(C(=O)OCc6ccccc6)CC5)[nH]c34)c2)cn1 [Example 69, Benzyl 4-(6-((3-fluoro-5-(1-methyl-1H-pyrazol-4-yl)benzyl)carbamoyl)-7H-purin-8-yl)piperidine-1-carboxylate]	100 to 1000
Cn1cc(-c2cc(F)cc(CNC(=O)c3ncnc4nc([C@H]5CCCN5C(=O)OCc5ccccc5)[nH]c34)c2)cn1 [Example 64, Benzyl (R)-2-(6-((3-fluoro-5-(1-methyl-1H-pyrazol-4-yl)benzyl)carbamoyl)-7H-purin-8-yl)pyrrolidine-1-carboxylate]	1000 to 10000
CC(C)N1CCC[C@H]1c1nc2ncnc(C(=O)NCc3cc(F)cc(-c4cnn(C)c4)c3)c2[nH]1 [Example 67, (S)-N-(3-fluoro-5-(1-methyl-1H-pyrazol-4-yl)benzyl)-8-(1-isopropylpyrrolidin-2-yl)-7H-purine-6-carboxamide]	1000 to 10000

More lines, now with the values ahead:

DC50 [nM]	Structure (SMILES)
1000 to 10000	Cn1cc(-c2cc(F)cc(CNC(=O)c3ncnc4nc[nH]c34)c2)cn1 [Example 74, N-(3-fluoro-5-(1-methyl-1H-pyrazol-4-yl)benzyl)-7H-purine-6-carboxamide]
1000 to 10000	CN1CCC(c2nc3ncnc(C(=O)NCc4cc(F)cc(-c5cnn(C)c5)c4)c3[nH]2)C1 (stereo not drawn) [Example 79, N-(3-fluoro-5-(1-methyl-1H-pyrazol-4-yl)benzyl)-8-(1-methylpyrrolidin-3-yl)-7H-purine-6-carboxamide]
100 to 1000	Cn1cc(-c2cc(F)cc(CNC(=O)c3ncnc4nc(C5CCN(C(=O)OCc6ccccc6)C5)[nH]c34)c2)cn1 (stereo not drawn) [Example 75, Benzyl 3-(6-((3-fluoro-5-(1-methyl-1H-pyrazol-4-yl)benzyl)carbamoyl)-7H-purin-8-yl)pyrrolidine-1-carboxylate]
1000 to 10000	Cn1cc(-c2cc(F)cc(CNC(=O)c3ncnc4nc(CN)[nH]c34)c2)cn1 [Example 73, 8-(Aminomethyl)-N-(3-fluoro-5-(1-methyl-1H-pyrazol-4-yl)benzyl)-7H-purine-6-carboxamide]
100 to 1000	Cn1cc(-c2cc(F)cc(CNC(=O)c3ncnc4nc(C5CCNCC5)[nH]c34)c2)cn1 [Example 70, N-(3-fluoro-5-(1-methyl-1H-pyrazol-4-yl)benzyl)-8-(piperidin-4-yl)-7H-purine-6-carboxamide hydrochloride]
1000 to 10000	CN1CCC(c2nc3ncnc(C(=O)NCc4cc(F)cc(-c5cnn(C)c5)c4)c3[nH]2)CC1 [Example 71, N-(3-fluoro-5-(1-methyl-1H-pyrazol-4-yl)benzyl)-8-(1-methylpiperidin-4-yl)-7H-purine-6-carboxamide]
1000 to 10000	Cn1cc(-c2cc(F)cc(CNC(=O)c3ncnc4nc(C5CCNC5)[nH]c34)c2)cn1 (stereo not drawn) [Example 76, N-(3-fluoro-5-(1-methyl-1H-pyrazol-4-yl)benzyl)-8-(pyrrolidin-3-yl)-7H-purine-6-carboxamide hydrochloride]
1000 to 10000	Cn1cc(-c2cc(F)cc(CNC(=O)c3ncnc4nc(CNC(=O)OCc5ccccc5)[nH]c34)c2)cn1 [Example 72, Benzyl ((6-((3-fluoro-5-(1-methyl-1H-pyrazol-4-yl)benzyl)carbamoyl)-7H-purin-8-yl)methyl)carbamate]

same assay, conditions: values marked * in the table, mixed hypoxic condition (1% oxygen + CoCl2) for 24 hours, concentration range at which HIF-1α expression is reduced by 50% vs untreated control, read-out: IC50 HIF-1α, Hypoxia(24h)

Structure (SMILES)	DC50 [nM]
O=C(NCc1cc(F)cc(-c2cnn(-c3ccc(F)cc3)c2)c1)c1ncnc2nc(C3CCOC3)[nH]c12 (stereo not drawn) [Example 89, N-(3-fluoro-5-(1-(4-fluorophenyl)-1H-pyrazol-4-yl)benzyl)-8-(tetrahydrofuran-3-yl)-7H-purine-6-carboxamide]	100 to 1000
O=C(NCCc1cccc(-c2cnn(-c3ccc(F)cc3)c2)c1)c1ncnc2nc(C3CCCC3)[nH]c12 [Example 94, 8-Cyclopentyl-N-(3-(1-(4-fluorophenyl)-1H-pyrazol-4-yl)phenethyl)-7H-purine-6-carboxamide]	100 to 1000
O=C(NCc1ccc(F)c(-c2cnn(-c3ccc(F)cc3)c2)c1)c1ncnc2nc(C3CCCC3)[nH]c12 [Example 96, 8-Cyclopentyl-N-(4-fluoro-3-(1-(4-fluorophenyl)-1H-pyrazol-4-yl)benzyl)-7H-purine-6-carboxamide]	100 to 1000
C[C@@H](NC(=O)c1ncnc2nc(C3CCCC3)[nH]c12)c1cccc(-c2cnn(-c3ccc(F)cc3)c2)c1 [Example 90, (R)-8-cyclopentyl-N-(1-(3-(1-(4-fluorophenyl)-1H-pyrazol-4-yl)phenyl)ethyl)-7H-purine-6-carboxamide]	100 to 1000
C[C@H](NC(=O)c1ncnc2nc(C3CCCC3)[nH]c12)c1cccc(-c2cnn(-c3ccc(F)cc3)c2)c1 [Example 91, (S)-8-cyclopentyl-N-(1-(3-(1-(4-fluorophenyl)-1H-pyrazol-4-yl)phenyl)ethyl)-7H-purine-6-carboxamide]	1000 to 10000
